From patent US20140130208A1, “METHODS AND MEANS TO PRODUCE ABIOTIC STRESS TOLERANT PLANTS” (VIB VZW, priority 2011, published 2014) come the findings set out here.

Assay [1] relates to Arabidopsis thaliana third true leaf. The assay is described as follows: Growth (kinematic) analysis of the third leaf after transfer of seedlings to mannitol- or ACC-containing medium. It counts as in vivo. The method, then:
Arabidopsis seedlings were germinated and grown on nylon meshes overlaying control medium until 9 days after stratification (DAS), when the third true leaf is fully proliferating (Skirycz et al., 2010), and subsequently transferred to control or mannitol-containing medium (FIGS. 1A to 10). Kinematic analysis was performed, whereby leaves were harvested daily throughout development of leaf 3 (9-20 DAS) and based on drawings of the abaxial epidermis cell number, cell area, number of guard cells and cell division and cell expansion rates were calculated (De Veylder et al., 2001). […] Leaf and plant morphology were not altered by mannitol (FIG. 2C). Cell expansion was also affected by stress and the reduced final leaf area was a combination of fewer and smaller cells (FIG. 2D). The stomatal index, which represents the number of stomata as a fraction of the total number of cells, was reduced as well (FIG. 2E). To learn more about the mechanisms underlying the rapid reduction of cell division upon stress onset, we harvested leaf samples daily after transfer. As a measure of cellular differentiation, the ploidy distribution was examined by flow cytometry. […] In stressed leaves, 4C nuclei started to accumulate approximately one day earlier than in controls at the expense of 2C nuclei (FIG. 3A). Analogously, the number of 8C nuclei increased sharply at 14 DAS in stressed leaves, but only at 15 DAS in control samples (FIG. 3A). Again, transfer itself had no effect on ploidy levels (not shown). […] This observation was further investigated with a CYCB1;1:Dbox-GUS reporter line. Staining for CYCB1;1:Dbox-GUS activity visualizes cells at the G2-to-M transition, reflecting mitotic activity (Colón-Carmona et al., 1999). The most apparent differences were observed 48 h after transfer. […] While the relative size of the cell proliferation zone was similar in mannitol-treated leaves, the remaining proliferating cells were found in a dispersed pattern throughout this zone. […] Within a few days after transfer, division rates adapted to the new conditions and compensation effects were observed.
Seedlings of Arabidopsis thaliana (L.) Heyhn. ecotype Columbia-0 (Col-0) were grown in vitro in half-strength Murashige and Skoog medium (Murashige and Skoog, 1962), supplemented with 1% sucrose under a 16-h day (110 μmol m^−2 s^−1) and 8-h night regime. Plates were overlaid with nylon mesh (Prosep, Zaventem, Belgium) of 20 μm pore size to avoid that roots grew into the medium. Depending on the experiment, 32 or 64 seeds were equally distributed on a 150-mm diameter plate. Mutant plants were grown together with their wild-type controls on the same plate.
(§1) At 9 DAS, when the third leaf is fully proliferating, seedlings were transferred to plates containing control medium or medium supplemented with 25 mM mannitol (Sigma-Aldrich) or 5 μM ACC (Sigma-Aldrich) by gently lifting the nylon mesh with forceps. For the CDKA activity assay the transfer was done at 11 DAS; at this stage, the third leaf is still dividing and can be quickly harvested without the need for RNAlater solution (see below) that would inhibit CDKA activity. All transfers were performed 2-3 h into the day.
Growth analysis was performed on the third true leaf harvested at different time points after transfer. After clearing with 70% ethanol, leaves were mounted in lactic acid on microscopic slides. For each experiment, 8-12 leaves were photographed with a binocular, and epidermal cells (40-300) were drawn for four representative leaves with a DMLB microscope (Leica) fitted with a drawing tubus and a differential interference contrast objective. Photographs of leaves and drawings were used to measure leaf and cell area, respectively, with ImageJ v1.41o (NIH; http://rsb.info.nih.gov/ij/), from which the cell numbers were calculated. The stomatal index was defined as the percentage of stomata per all cells. […]

Assay [2] shares this test system. Put plainly: Ploidy analysis of leaf 3 by flow cytometry (endoreduplication onset). The class given is in vivo. The settings on record: transfer at 9 DAS to 25 mM mannitol or 5 μM ACC. As to the method: Arabidopsis seedlings were germinated and grown on nylon meshes overlaying control medium until 9 days after stratification (DAS), when the third true leaf is fully proliferating (Skirycz et al., 2010), and subsequently transferred to control or mannitol-containing medium (FIGS. 1A to 10). Kinematic analysis was performed, whereby leaves were harvested daily throughout development of leaf 3 (9-20 DAS) and based on drawings of the abaxial epidermis cell number, cell area, number of guard cells and cell division and cell expansion rates were calculated (De Veylder et al., 2001). […] Leaf and plant morphology were not altered by mannitol (FIG. 2C). Cell expansion was also affected by stress and the reduced final leaf area was a combination of fewer and smaller cells (FIG. 2D). The stomatal index, which represents the number of stomata as a fraction of the total number of cells, was reduced as well (FIG. 2E). To learn more about the mechanisms underlying the rapid reduction of cell division upon stress onset, we harvested leaf samples daily after transfer. […]
For flow cytometry analysis, nuclei were extracted by chopping 4-32 leaves with a razor blade in 1 ml of 45 mM MgCl2, 30 mM sodium citrate, 20 mM 3-(N-morpholino)propanesulfonic acid, pH 7, and 1% Triton X-100 (Galbraith et al., 1983). […] The nuclei were analyzed with a CyFlow flow cytometer with the FloMax Software (Partec).
In general terms: In flow cytometry, cells or beads pass a laser one at a time.

For assay [3], the system named is CYCB1;1:Dbox-GUS reporter line. Put plainly: CYCB1;1:DBox-GUS staining of mitotic activity in leaf 3. The class given is in vivo, Arabidopsis thaliana. The note with it: 48 h after transfer to 25 mM mannitol or 5 μM ACC. The method, then: Arabidopsis seedlings were germinated and grown on nylon meshes overlaying control medium until 9 days after stratification (DAS), when the third true leaf is fully proliferating (Skirycz et al., 2010), and subsequently transferred to control or mannitol-containing medium (FIGS. 1A to 10). Kinematic analysis was performed, whereby leaves were harvested daily throughout development of leaf 3 (9-20 DAS) and based on drawings of the abaxial epidermis cell number, cell area, number of guard cells and cell division and cell expansion rates were calculated (De Veylder et al., 2001). […] Leaf and plant morphology were not altered by mannitol (FIG. 2C). Cell expansion was also affected by stress and the reduced final leaf area was a combination of fewer and smaller cells (FIG. 2D). The stomatal index, which represents the number of stomata as a fraction of the total number of cells, was reduced as well (FIG. 2E). To learn more about the mechanisms underlying the rapid reduction of cell division upon stress onset, we harvested leaf samples daily after transfer. As a measure of cellular differentiation, the ploidy distribution was examined by flow cytometry. […] In stressed leaves, 4C nuclei started to accumulate approximately one day earlier than in controls at the expense of 2C nuclei (FIG. 3A). […]

In assay [4] the test system is CDKA. Put plainly: CDKA activity assay on protein extracted from proliferating third leaves. It counts as in vivo, Arabidopsis thaliana. As to the method:
as §1
Total soluble protein was extracted from 50 leaves by adding extraction buffer (Van Leene et al., 2007) to ground samples, followed by two freeze-thaw steps and two centrifugation steps (20,817 g, 10 min, 4° C.), whereby the supernatant was collected each time. Equal amounts of total protein were incubated with p9^CKS1Hs-sepharose beads (De Veylder et al., 1997) and kinase assays were performed as described (De Veylder et al., 1997) with histone H1 as CDK substrate. To correct for the amount of CDKA protein purified by p9^CKS1Hs-sepharose beads, an aliquot of each sample was used for protein gel blot analysis with primary rabbit anti-PSTAIRE antibodies (Santa Cruz) (diluted 1:5000) and a secondary horseradish peroxidase-conjugated donkey anti-rabbit antibodies (GE-Healthcare) (diluted 1:10,000). Proteins were detected by chemiluminescence (Western Lightning Plus ECL, PerkinElmer Life Sciences). CDK activity and CDKA amount were quantified with ImageJ v1.41o. Control samples were arbitrarily set at 100%.

Assay [5] has as its system CDKB2;1 and CYCB1;1. Put plainly: Expression of mitotic cell cycle genes CDKB2;1 and CYCB1;1. It counts as in vivo, Arabidopsis thaliana. The settings on record: 5 μM ACC.
Setting [6] is: transfer at 9 DAS to 25 mM mannitol or 5 μM ACC, leaf 3.

On to 1-aminocyclopropane-1-carboxylate [ACC], for which the “ACC-related decrease in leaf area” value is on record as “comparable to that of the wild-type” in assay [1] (ein3.1 and eil1 mutants); “significantly less” in assay [1] (etr1.3, ein5.1, mkk9 and ein2.5 mutants, versus wild type). Moreover, the cell proliferation rates result in assay [1] (setting [6]) was “rapid reduction of cell proliferation rates”. In assay [1] (setting [6]), the stomatal index result is given as “not affected”. In addition, in assay [2], the endoreduplication onset result is reported as “no changes in endoreduplication onset”. The “number of mitotic cells (CYCB1;1:DBox-GUS activity)” value in assay [3] is given as “no changes in the number of mitotic cells”. The CDKA activity reduced result in assay [4] (ACC treatment, etr1.3 and ein5.1 mutants) is “not”. Also, the CDKA activity entry in assay [4] (ACC treatment, wild-type and ein3.1) is “reduced”; in assay [4] (wild type, 10 and 24 h after transfer to 25 mM mannitol or 5 μM ACC), “decreased as early as 10 h after transfer”. The “expression of mitotic cell cycle genes CDKB2;1 and CYCB1;1” value in assay [5] is on record as “no difference”.
